{"source": "paper PMC5036131", "about": "“Fragment-based discovery of a new family of non-peptidic small-molecule cyclophilin inhibitors with potent antiviral activities” (Nature Communications, 2016)", "key": {"[1]": {"assay": "Cell culture medium binding, equilibrium dialysis", "assay_type": "in vitro ADME", "details": "2 μM, 37 °C, 3 h dialysis", "procedure": "(§1) The extent of binding to pooled human plasma and to cell culture medium containing 10% fetal bovine serum was determined by equilibrium dialysis against isotonic phosphate buffer. Equilibrium dialysis was conducted at 37 °C with initial concentrations of compounds of 2 μM in the non-buffer matrix. A 3 h dialysis time was used for equilibration. Following dialysis, plasma samples were drained into pre-weighed polypropylene tubes containing buffer and buffer samples were drained into pre-weighed tubes containing blank plasma. Post-dialysis plasma and buffer weights were measured and recorded for concentration and recovery calculations. After precipitation and centrifugation, LC-MS/MS assays were used for the analysis of each of the protein/phosphate buffer-mixed matrices. Relative binding to human plasma and cell culture medium was determined in a similar manner, except that the two matrices were dialysed against each other directly and the compound was spiked into both matrices. After equilibration, the plasma sample was diluted with blank cell culture medium and the cell culture medium diluted with blank plasma."}, "HCV genotype 1b replicon": {"tested_on": "HCV genotype 1b replicon", "assay": "microbe, parasite or virus in culture", "assay_type": "cell-based, hepatitis C virus"}, "[2]": {"assay": "LogD determination by reverse-phase HPLC", "assay_type": "physicochemical", "details": "octanol/water, pH 7.4", "procedure": "The octanol/water partitioning (LogD) values of compounds were determined from their retention times during reverse-phase HPLC at pH 7.4 with diode array ultraviolet/visible detection. The LogD values were obtained by interpolation within a standard curve (range LogD: 0.3–5.7) generated with seven standards, with LogD values previously determined using the shake-flask method."}, "Kinetic solubility": {"assay": "Kinetic solubility", "assay_type": "physicochemical", "details": "target concentration 100 μM, 24 h; for Solubility HCl (pH 1.0): 0.1 N HCl pH 1.0", "procedure": "The solutions were incubated at room temperature with shaking for 24 h and were then centrifuged, and the recovered supernatants assayed by HPLC with diode array ultraviolet/visible detection. Solubility values were calculated by comparing the amount (by chromatographic peak area) of compound detected in the defined test solution with an unextracted standard. Relative chemical stabilities of compounds after 24 h incubation in PBS at 37 °C were also determined. The solubility and chemical stability of a quality-control compound (amprenavir) were determined in parallel."}, "CYP3A4": {"target": "T1, CYP3A4 (Homo sapiens, UniProt P08684)", "T1 construct": "incubated with human hepatic microsomal fractions and NADPH; from tissue; host or cells: human hepatic microsomal fractions", "T1 sequence (P08684 2-503)": "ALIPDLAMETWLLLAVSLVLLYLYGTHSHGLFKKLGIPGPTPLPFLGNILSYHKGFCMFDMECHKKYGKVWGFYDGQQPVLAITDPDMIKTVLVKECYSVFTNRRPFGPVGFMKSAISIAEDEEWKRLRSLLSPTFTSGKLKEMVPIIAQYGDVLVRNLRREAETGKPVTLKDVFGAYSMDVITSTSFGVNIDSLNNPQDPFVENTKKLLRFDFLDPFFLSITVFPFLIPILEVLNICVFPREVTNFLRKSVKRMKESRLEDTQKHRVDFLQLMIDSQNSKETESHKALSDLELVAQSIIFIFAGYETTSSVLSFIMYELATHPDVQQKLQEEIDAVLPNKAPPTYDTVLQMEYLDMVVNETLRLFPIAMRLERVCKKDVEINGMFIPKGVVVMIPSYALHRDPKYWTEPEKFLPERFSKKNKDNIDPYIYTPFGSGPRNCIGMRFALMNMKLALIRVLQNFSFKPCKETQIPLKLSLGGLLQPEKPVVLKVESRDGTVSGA", "assay": "Cytochrome P450 enzyme inhibition assay, CYP3A4", "assay_type": "in vitro ADME", "details": "human hepatic microsomal fractions, up to 25 μM", "procedure": "(§2) Up to 25 μM of compounds 29 and 30 was incubated with human hepatic microsomal fractions and NADPH in the presence of individual probe substrates. All assays were designed so that conditions were linear with respect to time and protein concentration. Substrates were present at concentrations equal to or lower than their respective Km values. Enzyme selective products were determined by fluorometry (ethoxyresorufin O-deethylase) or by specific LC-MS/MS assays. Relative enzyme activities were determined by comparison with those assayed with DMSO vehicle instead of inhibitor. IC50 values were calculated by nonlinear curve fitting using a sigmoidal model. Positive control inhibitors for each enzyme were tested in parallel."}, "Huh7 cells": {"tested_on": "Huh7 cells", "assay": "Cellular toxicity in Huh7 replicon cells", "details": "read-out: HCV genotype 1b replicon CC50; Huh7 cells"}, "[3]": {"assay": "Human plasma protein binding, equilibrium dialysis", "assay_type": "in vitro ADME", "details": "2 μM, 37 °C, 3 h dialysis", "procedure": "as §1"}, "MRC5 cells": {"tested_on": "MRC5 cells", "assay": "Cellular toxicity in MRC5 cells", "details": "read-out: MRC5 cells CC50; MRC5 cells"}, "CYP2C9": {"target": "CYP2C9 (Homo sapiens, UniProt P11712)", "sequence (P11712 whole entry)": "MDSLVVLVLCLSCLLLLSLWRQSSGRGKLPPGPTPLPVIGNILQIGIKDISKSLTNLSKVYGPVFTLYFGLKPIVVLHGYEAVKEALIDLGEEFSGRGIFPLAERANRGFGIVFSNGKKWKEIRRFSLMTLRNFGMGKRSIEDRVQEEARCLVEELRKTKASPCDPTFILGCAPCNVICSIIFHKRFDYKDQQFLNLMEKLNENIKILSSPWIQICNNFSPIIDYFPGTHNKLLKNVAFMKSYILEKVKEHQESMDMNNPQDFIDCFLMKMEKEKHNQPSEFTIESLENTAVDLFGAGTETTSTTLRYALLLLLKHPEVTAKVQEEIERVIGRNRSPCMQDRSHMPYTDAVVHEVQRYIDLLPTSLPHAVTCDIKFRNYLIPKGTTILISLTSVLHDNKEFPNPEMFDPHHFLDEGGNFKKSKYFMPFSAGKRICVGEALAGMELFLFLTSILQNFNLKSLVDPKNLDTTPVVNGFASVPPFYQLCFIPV", "assay": "Cytochrome P450 enzyme inhibition assay, CYP2C9", "assay_type": "in vitro ADME", "set-up": "incubated with human hepatic microsomal fractions and NADPH; from tissue; host or cells: human hepatic microsomal fractions", "details": "human hepatic microsomal fractions, up to 25 μM", "procedure": "as §2"}, "CYP1A2 [4]": {"target": "T2, CYP1A2 (Homo sapiens, UniProt P05177)", "T2 sequence (P05177 1-516)": "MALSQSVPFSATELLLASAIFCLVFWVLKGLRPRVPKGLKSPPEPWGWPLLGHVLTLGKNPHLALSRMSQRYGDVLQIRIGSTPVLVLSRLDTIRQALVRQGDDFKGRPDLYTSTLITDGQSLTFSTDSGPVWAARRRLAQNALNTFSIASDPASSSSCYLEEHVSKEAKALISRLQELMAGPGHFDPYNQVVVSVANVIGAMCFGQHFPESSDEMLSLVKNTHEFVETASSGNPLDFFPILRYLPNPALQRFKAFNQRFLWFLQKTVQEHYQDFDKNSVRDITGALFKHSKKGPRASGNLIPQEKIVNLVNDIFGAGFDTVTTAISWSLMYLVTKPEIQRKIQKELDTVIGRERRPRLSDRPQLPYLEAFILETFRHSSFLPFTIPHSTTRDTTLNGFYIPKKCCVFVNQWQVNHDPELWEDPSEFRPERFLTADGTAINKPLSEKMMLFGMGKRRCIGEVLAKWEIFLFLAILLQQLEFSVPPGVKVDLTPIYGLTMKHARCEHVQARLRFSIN", "assay": "Metabolism by recombinant human cytochrome P450, CYP1A2", "assay_type": "in vitro ADME", "details": "recombinant enzyme", "procedure": "(§3) […] of compound was incubated with individual bacterially expressed recombinant human cytochromes P450 co-expressed with human NADPH cytochrome P450 reductase. […] Enzyme-selective positive control substrates were tested in parallel."}, "CYP2C19 [5]": {"target": "T3, CYP2C19 (Homo sapiens, UniProt P33261)", "T3 sequence (P33261 whole entry)": "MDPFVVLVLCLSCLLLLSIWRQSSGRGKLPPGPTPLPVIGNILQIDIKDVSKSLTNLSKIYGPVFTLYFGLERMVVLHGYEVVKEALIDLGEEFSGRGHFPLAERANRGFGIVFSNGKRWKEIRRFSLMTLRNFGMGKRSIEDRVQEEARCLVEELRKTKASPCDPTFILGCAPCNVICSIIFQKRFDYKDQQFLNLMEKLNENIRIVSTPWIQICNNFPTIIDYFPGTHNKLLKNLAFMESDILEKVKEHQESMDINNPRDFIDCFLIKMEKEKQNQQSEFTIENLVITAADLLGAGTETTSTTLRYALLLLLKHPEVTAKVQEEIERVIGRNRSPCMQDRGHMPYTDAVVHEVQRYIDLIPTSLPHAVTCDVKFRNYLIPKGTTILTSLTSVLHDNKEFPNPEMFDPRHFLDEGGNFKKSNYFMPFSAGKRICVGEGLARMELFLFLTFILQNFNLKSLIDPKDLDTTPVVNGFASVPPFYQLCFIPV", "assay": "Metabolism by recombinant human cytochrome P450, CYP2C19", "assay_type": "in vitro ADME", "details": "recombinant enzyme", "procedure": "as §3"}, "HCoV-229E": {"tested_on": "HCoV-229E", "assay": "Anti-human coronavirus 229E activity in MRC5 cells", "assay_type": "cell-based", "details": "72 h, viral cytopathic effect"}, "CYP1A2 [6]": {"target": "T2, CYP1A2", "assay": "Cytochrome P450 enzyme inhibition assay, CYP1A2", "assay_type": "in vitro ADME", "set-up": "incubated with human hepatic microsomal fractions and NADPH; from tissue; host or cells: human hepatic microsomal fractions", "details": "human hepatic microsomal fractions, up to 25 μM", "procedure": "as §2"}, "CYP2D6": {"target": "CYP2D6 (Homo sapiens, UniProt P10635)", "sequence (P10635 whole entry)": "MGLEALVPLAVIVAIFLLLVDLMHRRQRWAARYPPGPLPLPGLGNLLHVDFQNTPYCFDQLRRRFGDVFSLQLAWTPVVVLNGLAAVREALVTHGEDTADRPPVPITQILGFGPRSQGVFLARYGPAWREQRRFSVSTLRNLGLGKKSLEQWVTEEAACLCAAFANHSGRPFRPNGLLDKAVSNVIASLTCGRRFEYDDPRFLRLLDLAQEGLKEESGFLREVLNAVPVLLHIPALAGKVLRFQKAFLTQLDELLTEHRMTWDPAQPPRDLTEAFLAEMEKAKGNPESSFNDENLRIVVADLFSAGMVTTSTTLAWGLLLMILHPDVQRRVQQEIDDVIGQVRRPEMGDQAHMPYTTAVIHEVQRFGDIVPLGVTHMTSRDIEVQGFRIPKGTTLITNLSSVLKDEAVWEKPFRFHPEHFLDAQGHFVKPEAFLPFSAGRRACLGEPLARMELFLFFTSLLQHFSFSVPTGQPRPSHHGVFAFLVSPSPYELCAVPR", "assay": "Cytochrome P450 enzyme inhibition assay, CYP2D6", "assay_type": "in vitro ADME", "set-up": "incubated with human hepatic microsomal fractions and NADPH; from tissue; host or cells: human hepatic microsomal fractions", "details": "human hepatic microsomal fractions, up to 25 μM", "procedure": "as §2"}, "CYP2C19 [7]": {"target": "T3, CYP2C19", "assay": "Cytochrome P450 enzyme inhibition assay, CYP2C19", "assay_type": "in vitro ADME", "set-up": "incubated with human hepatic microsomal fractions and NADPH; from tissue; host or cells: human hepatic microsomal fractions", "details": "human hepatic microsomal fractions, up to 25 μM", "procedure": "as §2"}}, "note": "Like-named read-outs stand apart in the source and are kept apart here."}
{"compound": "CSCCC(NC(=O)NCc1ccc(N)cc1)C(=O)N1CCCC1c1ccccc1SC.O=C(O)C(F)(F)F", "note": "(stereo not drawn) [Compound 30]", "values": [{"measurement": "Cell culture medium (CCM) binding Unbound", "setting": "[1]", "value": 23.2, "unit": "%"}, {"measurement": "EC50", "setting": "HCV genotype 1b replicon; Huh7 cells, 3 days, HCV RNA, read-out: HCV genotype 1b replicon EC50", "value": "1.4 ± 1.2", "unit": "µM"}, {"measurement": "EC50", "setting": "HCV genotype 1b replicon; wild-type genotype 1b replicon, comparison with mutated replicons (Table 3), read-out: EC50 HCV (WT) subgenomic replicon", "value": "2.1 ± 0.09", "unit": "µM"}, {"measurement": "LogD", "setting": "[2]", "value": 2.6}, {"measurement": "Solubility HCl (pH 1.0)", "setting": "Kinetic solubility", "value": "> 100"}, {"measurement": "Solubility HCl (pH 1.0)", "setting": "Kinetic solubility; listed as compound 30", "value": "very soluble"}, {"measurement": "Solubility PBS (pH 7.4)", "setting": "Kinetic solubility", "value": "> 100"}, {"measurement": "Solubility PBS (pH 7.4)", "setting": "Kinetic solubility; listed as compound 30", "value": "very soluble"}, {"measurement": "IC50", "setting": "CYP3A4", "value": 0.6, "unit": "µM"}, {"measurement": "Inhibition of cytochrome P450 activity, IC50 CYP3A4", "setting": "CYP3A4", "value": "potent inhibitors"}, {"measurement": "CC50", "setting": "Huh7 cells", "value": "> 100", "unit": "µM"}, {"measurement": "Human plasma binding Bound", "setting": "[3]", "value": 85.1, "unit": "%"}, {"measurement": "Human plasma binding Unbound", "setting": "[3]", "value": 14.9, "unit": "%"}, {"measurement": "CC50", "setting": "MRC5 cells", "value": "> 100", "unit": "µM"}, {"measurement": "IC50", "setting": "CYP2C9", "value": "> 25", "unit": "µM"}, {"measurement": "Inhibition of cytochrome P450 activity, IC50 CYP2C9", "setting": "CYP2C9", "value": "Neither compound 29 nor compound 30 significantly inhibited"}, {"measurement": "Rate of metabolism by human cytochrome P450 CYP1A2", "setting": "CYP1A2 [4]", "value": "< 0.12", "unit": "pmol/pmol P450/min"}, {"measurement": "Rate of metabolism by human cytochrome P450 CYP1A2", "setting": "CYP1A2 [4]; listed as compound 30", "value": "Neither compound 29 nor compound 30 was metabolized"}, {"measurement": "Rate of metabolism by human cytochrome P450 CYP2C19", "setting": "CYP2C19 [5]", "value": 6.21, "unit": "pmol/pmol P450/min"}, {"measurement": "Rate of metabolism by human cytochrome P450 CYP2C19", "setting": "CYP2C19 [5]; listed as compound 30", "value": "metabolized at the highest rate"}, {"measurement": "EC50", "setting": "HCoV-229E", "value": "7.2 ± 1.8", "unit": "µM"}, {"measurement": "IC50", "setting": "CYP1A2 [6]", "value": "> 25", "unit": "µM"}, {"measurement": "Inhibition of cytochrome P450 activity, IC50 CYP1A2", "setting": "CYP1A2 [6]", "value": "Neither compound 29 nor compound 30 significantly inhibited"}, {"measurement": "Inhibition of cytochrome P450 activity, IC50 CYD2D6", "setting": "CYP2D6", "value": "Neither compound 29 nor compound 30 significantly inhibited"}, {"measurement": "IC50", "setting": "CYP2D6; read-out: Inhibition of cytochrome P450 activity, IC50 CYD2D6", "value": "> 25", "unit": "µM"}, {"measurement": "IC50", "setting": "CYP2C19 [7]", "value": "> 25", "unit": "µM"}, {"measurement": "Inhibition of cytochrome P450 activity, IC50 CYP2C19", "setting": "CYP2C19 [7]", "value": "Neither compound 29 nor compound 30 significantly inhibited"}]}
